In US9090701B2, “Methods of detecting oxidized calcium/calmodulin dependent protein kinase II” (University of Iowa Research Foundation, priority 2008, dated 2015):

What was measured:
oxidized CaMKII = assay: Oxidized / phosphorylated CaMKII in hearts of treated mice (immunostaining, immunoblot); type: in vivo
Description: (§1) Mice were anesthetized with ketamine (87.5 mg/kg) and xylazine (12.5 mg/kg), and a small incision was made in the skin near the spine, approximately 1 cm above the hip. Minipumps containing saline or AngII (3 mg/kg/day) were inserted and the skin was sutured closed. Other mice were given, daily injections of Iso (30 mg/kg/day, intraperitoneal) for 7 days. Animals were then sacrificed and the heart was removed, fixed, and embedded in paraffin. Transverse heart sections of 5 μm thickness were made. To confirm the identity of cardiomyocytes, heart sections were immunolabeled with alpha-actinin Ig (cardiomyocyte-specific marker). Only sections with >90% cardiomyocytes were used in experiments. (See FIG. 13.) Paraffin was removed, and TUNEL staining was performed using In Situ cell death detection kits, TMR Red (Roche). Nuclei were co-stained with DAPI. To determine percent of TUNEL positive nuclei, whole heart sections were divided into four quadrants and one image was taken at random within each quadrant. In the case of sections from post-MI mice, an average of 50% of the heart quadrants were from portions of the heart adjacent to the MI. An investigator blinded to the identity and treatment of the mice counted the number of total and TUNEL positive cells in each image.
Other sections were treated with either a general CaMKII antibody or oxidized CaMKII antiserum. Nuclei were co-stained with DAPI. Identity of cardiomyocytes was confirmed by co-stain with an antibody against α-actinin. Images were quantified for relative staining intensity using Image J (NIH, USA). Each image was divided into four quadrants, and one rectangular area of equal size and shape was randomly placed within the cytosolic area of each quadrant, excluding DAPI-stained nuclei. Relative intensity of an image was judged to be the mean of the intensity measurements taken in each quadrant. Both the investigators and technical personnel assigned to immunostaining and quantification were blinded to the genetic identity and treatment of the mice in all studies.
To determine the role of CaMKII oxidation In apoptosis, mice were treated with saline, AngII, or isoproterenol (Iso) for one week, and transverse heart, sections from these mice were probed for the production of oxidized CaMKII in vivo. […] Total CaMKII immunoreactivity remained constant regardless of treatment. […] (See FIG. 6).
Homogenized hearts from mice treated with saline, AngII, or Iso, and whole heart lysates were analyzed by immunoblot for oxidized CaMKII.
Methionine oxidation is specifically reversed by MsrA (Weissbach e.g., 2002), so it was hypothesized that MsrA^−/− mice would show enhanced vulnerability to AngII-mediated CaMKII oxidation and apoptosis. In order to test this idea, MsrA^−/− and WT control mice were implanted with AngII or saline elating osmotic mini pumps. […] In order to test if CaMKII oxidation and apoptosis were regulated by NADPH oxidase and MsrA in the setting of myocardial infarction, MsrA^−/−, p47^−/−, and WT mice were subjected to myocardial infarction surgery. […] Myocardial infarction surgery was performed on a larger cohort of MsrA^−/− and WT control mice to determine if increased CaMKII oxidation and apoptosis in MsrA^−/− mice translated into poorer functional outcomes.
To test the specificity of this antiserum, Western blots of isolated CaMKII after no treatment, oxidation with H2O2, or phosphorylation with ATP were performed. CaMKII samples were probed for either total protein using a general CaMKII antibody or for oxidized CaMKII with anti-oxCaMKII antiserum. […] (See FIG. 14A). To test the efficacy of the antiserum in tissue staining, mice were treated with either saline or angiotensin II, an oxidant stimulating agent in cardiac tissue, and stained heart sections and performed immunofluorescent stains for oxidized CaMKII. […] (See FIG. 14B).

cardiomyocytes [1] = assay: Intracellular calcium concentration (Fura-2 imaging); type: cell-based, mouse; settings: compared to Iso, cardiomyocytes from WT and p47−/− mice, 100 nM
Description: Intracellular calcium concentration was assessed by Fura-2 fluorescence ratio imaging using a microscopic digital imaging system (Photon Technology International), as described previously (Sharma e.g., 1995). Briefly, cultured primary cardiac myocytes were loaded with the Ca^2+-specific dye Fura-2 by incubating with 1 μM Fura-2AM (Molecular Probes) at 37° C. for 30 minutes. [Ca^2+]t values over the entire cell were calculated from the 340/380-nm ratio images of Fura-2 fluorescence captured before, during and after Iso (100 nM) or AngII (100 nM) stimulation.
(§2) In order to validate the connection between AngII and ROS in this experimental model, isolated cardiomyocytes from WT and p47^−/− mice were treated with 100 nM AngII and monitored production of ROS by Imaging DHE, a fluorescent reporter for superoxide and hydrogen peroxide (FIG. 7C). Wild-type cardiomyocytes were incubated with fura-2 AM, a cell-permeant calcium indicator to observe changes in intracellular Ca^2+ ([Ca^2+]i).

cardiomyocytes [2] = assay: ROS detection with DHE in cardiomyocytes; type: cell-based, mouse; settings: 100 nM
Description: Changes in ROS levels in cultured primary cardiac myocytes after agonist stimulation were measured using the fluorogenic probe dihydroethidium (DHE, 5 μM, Molecular Probes), as previously described (Zimmerman e.g., 2004). DHE fluorescent images were acquired using confocal microscopy (Zeiss LSM510).
as §2

oxCaMKII = assay: Western blot of blood samples for oxidized CaMKII; type: in vivo, mice; settings: WT and MsrA−/− mice, sacrificed 6 hours later, N=1 per group
From the text: In order to test whether the anti-oxCaMKII antiserum was suitable for detecting increased CaMKII oxidation in blood under disease conditions associated with enhanced oxidative stress, validated mouse models were utilized. […] (See FIG. 15). Western blot of blood samples and ImageJ analysis were used to quantify total and oxidized CaMKII. (See FIG. 15). […] Mice were exposed to cancer cells and treated with either saline or 2DG. Those mice that tailed to develop tumors after 60 days were labeled as controls. (See FIG. 16). Western blot of blood samples and ImageJ analysis were used to quantify total and oxidized CaMKII. (See FIG. 16). […] (See FIG. 16). Mice were divided into four groups based on the presence or absence of cancer and whether or not they received treatment. Western blot of blood samples and ImageJ analysis were used to quantify total and oxidized CaMKII. (See FIG. 18). Both cancer and varied treatments increase blood oxCaMKII in an additive manner.

heart = test system: heart; set-up: species or system mice; settings: mouse, in vivo
Description: as §1, with “image. […]” for “image.”

Question: How did the “CaMKII oxidation in hearts” value (oxidized CaMKII; MsrA−/− mice, vs saline MsrA−/− and control hearts) turn out when “angiotensin II (DRVYIHPF; Angiotensin-2; UniProt P01019 25-32, looked up) [AngII, oxidant stimulating agent in cardiac tissue]” was run?
Answer: The value was “significantly more CaMKII oxidation”.

Question: What about the “Oxidized CaMKII in heart sections” value (oxidized CaMKII; WT mice) of the same substance?
Answer: Its value is “more oxidized CaMKII than those treated with saline or Iso”.

Question: What about the “Staining for T287-phosphorylated CaMKII in heart sections” value (oxidized CaMKII; WT mice, AngII 3 mg/kg/day 1 week) of the same substance?
Answer: The value was “increased staining”.

Question: And the “Oxidized CaMKII in heart sections” value (oxidized CaMKII; WT mice, listed as angiotensin II)?
Answer: The value was “significant staining relative to the control”.

Question: What about the “Oxidized CaMKII in heart sections” value (oxidized CaMKII; p47−/− mice) of the same substance?
Answer: The value was “did not show increased levels of oxidized CaMKII”.

Question: And the “Staining for T287-phosphorylated CaMKII in heart sections” value (oxidized CaMKII; p47−/− mice)?
Answer: The value was “unaffected”.

Question: What about the “Oxidized CaMKII in whole heart lysates (immunoblot)” value (oxidized CaMKII; vs saline or Iso) of the same substance?
Answer: The value was “significantly increased oxidized CaMKII levels”.

Question: And the “Increases in [Ca2+]i” value (cardiomyocytes [1])?
Answer: The value was “significantly less”.

Question: What about the ROS production (cardiomyocytes [2]; WT cardiomyocytes) of the same substance?
Answer: The ROS production was “significant increase in ROS production”.

Question: And the “ROS production (significant increase)” value (cardiomyocytes [2]; p47−/− cardiomyocytes)?
Answer: The value was “not”.

Question: And the “Oxidized CaMKII in blood” value (oxCaMKII)?
Answer: Its value is “increased oxidized CaMKII”.

Question: What about the “TUNEL staining of hearts” value (heart) of the same substance?
Answer: The value was “increased TUNEL staining”.
